Laboratory results reported in US9681668B2, “Control of plant diseases and enhancing plant growth using a combination of a Trichoderma virens species and a rhizosphere competent Trichoderma harzianum species” (priority 2008, dated 2017).

Tests used:
Assay type in all cases: in vivo
Phytophthora cinnamomi [1] = assay: Example 1: soil treatment of boxwoods inoculated with P. cinnamomi; settings: boxwood; for Marketability: 1(dead)-5(excellent) Scale: G41 8 oz, mefenoxam 1 oz/100 gal, mean of 10
Description: (§1) Except for the non-inoculated controls, each plant was treated with P. cinnamomi inoculum to induce disease. Boxwood plants were obtained from a local nursery and placed into a 6 inch diameter pot containing pine bark: peat (3:1 volume:volume) potting media. The medium was amended with 14 lb of 17-7-12 Osmocote fertilizer per cubic yard of mix.
(§2) Inoculum of P. cinnamomi was grown on sterilized rice grains for 14 days at 24-26° C. prior to inoculation. To treat the plants with the pathogen inoculum, four holes were punched equidistant around the root ball, and four colonized rice grains were inserted in each hole. Each of the test materials was applied at the specified rate to the soil surface, using a 2.5 pint hand held sprayer. The chemical standard, mefenoxam (Subdue®), was applied to the soil surface 24 hours after the plant roots were inoculated with P. cinnamomi inoculum. T22 and G41 were applied to the soil surface 72 hours prior to root inoculation with P. cinnamomi.
(§3) A marketability rating was determined for each plant at one day after inoculation (DAI) with P. cinnamomi, 22 days DAI, and 54 days DAI. Using the following scale, each plant was rated by three researchers and the mean value was determined for each plant: • 1: Dead plants • 2: Poor, unsalable (severe chlorosis and poor top growth) • 3: Moderate, salable (slight chlorosis and/or stunting; plant growth between 2 and 4) • 4: Salable (few individual leaves with chlorosis, green foliage; plant growth between 3 and 5) • 5: Excellent health, salable (no chlorosis; optimum top growth)
(§4) At 1, 22, and 54 DAI, plant height was measured from the crown to the highest point of the plant. Dry root weight and fresh shoot weight were determined at 22 and 54 DAI.
(§5) At 22 DAI, a subset of plants from each treatment were removed and examined. Plants were removed from the pots, and excess soil was carefully brushed from the roots. Above ground portions (shoots) were cut away from the below ground portions and dried in an oven. Dry root weights and fresh shoot weights were recorded. At 54 DAI, the experiment was terminated; the remaining plants were treated as above to determine dry root and shoot weights. Data were subjected to analysis of variance and treatment means were separated by Student-Newman-Keuls test at P=0.05.

Phytophthora cinnamomi [2] = assay: Example 2: spray treatment of boxwoods challenged with Phytophthora cinnamomi; settings: boxwood, P. cinnamomi; for Dry Root Weight / Fresh Shoot Weight: mean of 5; for Marketability: 1(dead)-5(excellent) Scale: G41 4 oz, T22 4 oz, mefenoxam 1 oz/100 gal; for Marketability: 1(dead)-5(excellent) Scale / Height: mean of 10
Description: as §1, §2, §3, §4, §5
Except for the non-inoculated controls, each plant was treated with P. cinnamomi inoculum to induce disease. The methodology for this test was identical to that described in Example 1.

Phytophthora nicotianae = assay: Example 3: spray treatment of azaleas challenged with Phytophthora nicotianae; settings: azalea, P. nicotianae; for Dry Root Weight / Fresh Shoot Weight: mean of 5; for Marketability: 1(dead)-5(excellent) Scale: G41 4 oz, T22 4 oz, mefenoxam 1 oz/100 gal; for Marketability: 1(dead)-5(excellent) Scale / Height: mean of 10
Description: as §2, §3, §4, §5
Except for the non-inoculated controls, each plant was treated with P. nicotianae inoculum to induce disease. The methodology for this test was identical to that described in Example 1.

[3] = system: Fusarium oxysporum f. sp. lycopersici; assay: Example 4: soil drench of tomato seedlings challenged with Fusarium oxysporum; settings: 28 DAI, biologicals 4 oz, mefenoxam 1 oz/100 gal, mean of 28 plants
Description: (§6) Tomato, Lycopersicon esculentum, var esculentum ‘Beefsteak’, seedlings were subjected to the soil drench treatments set forth in Table 13. Except for the non-inoculated controls, each plant was treated with inoculum of the pathogen F. oxysporum f. sp. lycopersici to induce disease.
(§7) Tomatoes were started in 128-cell flats from seeds in a general purpose, peat-based growing medium. Plants were watered with a 100 ppm solution of 20-20-20 water-soluble plant food (Jack's Classic). At 4-5 days after planting, the seedlings were drenched with the biological materials mixed in water. Seedlings not receiving treatments at this time were treated only with the blank formulation (without Trichoderma).
(§8) Inoculum of F. oxysporum was grown on sterilized rice grains for 7 days at 24-26° C. The rice was uniformly blended into growing medium at a rate of 5% (weight: weight). Seven day old tomato seedlings were transplanted into 4 inch pots that contained the pathogen inoculum on rice. A set of untreated control seedlings were transplanted into pots containing the growing medium plus uninoculated rice. […]
(§9) Plants were maintained in a growing room at 20-24° C. under a 12 hour light: dark cycle. […] The material was dried in an oven at 60° C. until completely dry (approximately 24 hours) and the weights recorded. […] Significant differences between treatment means were determined using Tukey's HSD test at P=0.05.

Pythium irregulare [4] = assay: Example 5: soil drench of tomato seedlings challenged with Pythium irregulare; settings: 21 DAI, biologicals 4 oz, mefenoxam 1 oz/100 gal, mean of 28 plants
Description: (§10) Tomato, Lycopersicon esculentum, var esculentum ‘Beefsteak’, seedlings were subjected to the soil drench treatments set forth in Table 13. Except for the non-inoculated controls, each plant was treated with inoculum of the pathogen Pythium irregulare to induce disease.
(§11) Tomato seedlings were grown and treated as described above in Example 2. Sterile rice was inoculated with a suspension of P. irregulare at the rate of 1 colonized PDA Petri plate/1 liter of sterile water. Rice was incubated for 24 hours at 24-26° C. Infested rice was uniformly blended into the growing medium at a rate of 5% (weight: weight).
(§12) Tomato seedlings were transplanted into 4 inch pots that contained the pathogen inoculum on rice. A set of untreated control seedlings were transplanted into pots containing the growing medium plus rice, but no pathogen. A set of seedlings was drenched with the label rate of mefenoxam to serve as the chemical standard and a set of treated control seedlings was transplanted into medium containing the pathogen.
(§13) Plants were maintained in a growing room at 20-24° C. under a 12 hour light: dark cycle. Plants were watered with a nutrient solution as described above. […] The material was dried in an oven until completely dry (approximately 24 hours) and the weights recorded.

Pythium aphanidermatum = assay: Example 6: cucumber seed coating against Pythium aphanidermatum damping-off; settings: P. aphanidermatum inoculum, greenhouse
Description: Cucumber, Cucumis sativus, var Marketmore 76 seeds were coated with T harzianum and/or T. virens, or mefenoxam as described by Pill et al. (Pill et. al., Scientia Horticulturae 121:54-62 (2009), which is hereby incorporated by reference in its entirety). Seeds were planted into flats with or without P. aphanidermatum inoculum. The experiment was conducted in a greenhouse with natural lighting and temperature settings of 25/22° C. (day/night). The numbers of seedlings emerged were recorded daily until there was no increase for two consecutive days. Diseased plants were recorded as either pre- (no seedling emergence) or post-emergent (shoot lodging).

Rhizoctonia solani = assay: Example 7: soil drench of tomato seedlings challenged with Rhizoctonia solani; settings: R. solani, 23 DAI, biologicals 4 oz, mefenoxam 1 oz/100 gal, mean of 28 plants
Description: as §10, with “13, except that there were no untreated control plants.” for “13.”, “R. solani” for “Pythium irregulare”
Tomato seedlings were grown and treated as described above in Example 2. Sterile rice was inoculated with agar plugs from PDA Petri plates containing growing colonies of R. solani at a rate of one colonized PDA plate/500 g rice. Rice was incubated for 10 days at 24-26° C. Infested rice was uniformly blended into the growing medium at a rate of 5% (weight: weight).
Tomato seedlings were transplanted into 4 inch pots that contained the pathogen inoculum on rice. The untreated check plants became contaminated with an unknown disease and were not included in the analysis. A set of seedlings was drenched with the label rate of mefenoxam to serve as the chemical standard and a set of treated control seedlings was transplanted into medium containing the pathogen.
as §13, with “oven at 60° C.” for “oven”, “recorded. Data were analyzed as described in Example 2, above.” for “recorded.”

Pythium irregulare [5] = assay: Example 8 Experiment 1: soil drench of cucumber seedlings challenged with Pythium irregulare (T22 and G21); settings: 28 DAI, biologicals 4 oz, mefenoxam 1 oz/100 gal, mean of 14 plants
Description: Except for the non-inoculated controls, each plant was treated with inoculum of the pathogen Pythium irregulare to induce disease.
as §11, with “Seedlings were” for “Tomato seedlings were”, “described” for “described above”, “Example 4.” for “Example 2.”, “of one” for “of 1”
as §12, with “Cucumber” for “Tomato”
Plants were maintained in a growing room at 20-24° C. under a 12 hour light: dark cycle. At 28 DAI, the experiment was terminated, and the plants were each separated into two parts: root (below ground) and shoot (above ground). The material was dried in an oven at 60° C. until completely dry (approximately 24 hours) and the weights recorded. Data were analyzed as described in Example 4.

[6] = system: Fusarium oxysporum f. sp. lycopersici; assay: Example 8 Experiment 2: soil drench of tomato seedlings challenged with Fusarium oxysporum (T12 and G41); settings: 28 DAI, biologicals 4 oz, mefenoxam 1 oz/100 gal, mean of 14 plants
Description: as §6, §7, §8
as §9, with “P=0.05. […]” for “P=0.05.”

SMILES: COCC(=O)N(c1c(C)cccc1C)[C@H](C)C(=O)OC [Mefenoxam, mefenoxam]
- Marketability: 1(dead)-5(excellent) Scale (Phytophthora cinnamomi [1]; 5/26, T22 4 oz): 5 a
- Height (Phytophthora cinnamomi [1]; 5/26, mean of 10): 13.8 a cm
- Marketability: 1(dead)-5(excellent) Scale (Phytophthora cinnamomi [1]; 6/21, T22 4 oz): 4.4 a
- Dry Root Weight (Phytophthora cinnamomi [1]; 6/21, mean of 5): 16.7 a g
- Fresh Shoot Weight (Phytophthora cinnamomi [1]; 6/21, mean of 5): 86.2 a g
- Height (Phytophthora cinnamomi [1]; 6/21, mean of 10): 39.7 a cm
- Marketability: 1(dead)-5(excellent) Scale (Phytophthora cinnamomi [1]; 7/10, T22 4 oz): 4.7 a
- Dry Root Weight (Phytophthora cinnamomi [1]; 7/10, mean of 5): 30.1 a g
- Fresh Shoot Weight (Phytophthora cinnamomi [1]; 7/10, mean of 5): 108.3 a g
- Height (Phytophthora cinnamomi [1]; 7/10, mean of 10): 39.8 a cm
- Dry Root Weight (Phytophthora cinnamomi [2]; 1/13): 96.0 ab g
- Fresh Shoot Weight (Phytophthora cinnamomi [2]; 1/13): 81.6 a g
- Dry Root Weight (Phytophthora cinnamomi [2]; 12/12): 76.4 a g
- Fresh Shoot Weight (Phytophthora cinnamomi [2]; 12/12): 64.8 a g
- Marketability: 1(dead)-5(excellent) Scale (Phytophthora cinnamomi [2]; Dec. 12, 2004): 4.6 a
- Height (Phytophthora cinnamomi [2]; Dec. 12, 2004): 34.6 ab cm
- Marketability: 1(dead)-5(excellent) Scale (Phytophthora cinnamomi [2]; Jan. 13, 2005): 4.7 ab
- Height (Phytophthora cinnamomi [2]; Jan. 13, 2005): 36.7 ab cm
- Marketability: 1(dead)-5(excellent) Scale (Phytophthora cinnamomi [2]; Nov. 21, 2004): 5.0 a
- Height (Phytophthora cinnamomi [2]; Nov. 21, 2004): 13.3 ab cm
- Dry Root Weight (Phytophthora nicotianae; 6/21): 44.2 a g
- Fresh Shoot Weight (Phytophthora nicotianae; 6/21): 49.0 ab g
- Dry Root Weight (Phytophthora nicotianae; 7/10): 55.5 ab g
- Fresh Shoot Weight (Phytophthora nicotianae; 7/10): 70.3 ab g
- Marketability: 1(dead)-5(excellent) Scale (Phytophthora nicotianae; Dec. 17, 2004): 4.4 ab
- Height (Phytophthora nicotianae; Dec. 17, 2004): 27.5 ab cm
- Marketability: 1(dead)-5(excellent) Scale (Phytophthora nicotianae; Jan. 6, 2005): 4.4 ab
- Height (Phytophthora nicotianae; Jan. 6, 2005): 35.5 ab cm
- Marketability: 1(dead)-5(excellent) Scale (Phytophthora nicotianae; Nov. 25, 2004): 5 a
- Height (Phytophthora nicotianae; Nov. 25, 2004): 13.7 a cm
- Dry Root Weight [3]: 0.12 bc g
- Dry Shoot Weight [3]: 0.90 bc g
- Dry Root Weight (Pythium irregulare [4]): 0.04 c g
- Dry Shoot Weight (Pythium irregulare [4]): 0.28 g·days
- Percent Damping-Off, Pre-emergence (Pythium aphanidermatum): 4.6 bc Percent
- Percent Damping-Off, Total (Pythium aphanidermatum): 9.3 c Percent
- Dry Root Weight (Rhizoctonia solani): 0.06 b g
- Dry Shoot Weight (Rhizoctonia solani): 0.42 c g
- Dry Root Weight (Pythium irregulare [5]): 0.10 abc g
- Dry Shoot Weight (Pythium irregulare [5]): 0.66 ab g
- Dry Root Weight [6]: 0.03 b g
- Dry Shoot Weight [6]: 0.17 c g
